In assay [1] the target is T1, hSSTR4 (Homo sapiens (Human), UniProt P31391). Description: Radioligand competition binding, membrane homogenate. The following applies: after being dissolved to free base forms. On the procedure: In competition experiments, the test compound, which is not labeled, competes with the binding site of a labeled ligand. The displacement of the labeled ligand by the test compound leads to a decreased signal. For the binding experiments 200 μL of membrane homogenate from one of the following protein amounts is used: hSSTR1 (40 μg/well); hSSTR2 (25 μg/well); hSSTR3 (1.5 μg/well); hSSTR4 (0.5 μg/well); hSSTR5 (25 μg/well). The homogenate is incubated with 0.05 nM of radioligand ([3-125I-Tyr]-Somatostatin-(1-14)) in addition to increasing concentrations of a test compound or vehicle (100% binding) in a total volume of 250 μL using a Hepes buffer (10 mM, EDTA 1 mM, MgCl2 5 mM, pH 7.6, BSA 0.5%, Bacitracin 0.003%, DMSO 1%) for 180 min at RT. The incubation is terminated by filtration with ice cold NaCl 0.9% through polyethyleneimine treated (0.3%) grade GF/B glass fiber filters using a cell harvester. The protein-bound radioactivity is measured in a suitable reader. The non-specific binding is defined as radioactivity bound in the presence of 1 μM Somatostatin-14 during the incubation period. The analysis of the concentration-binding curves is performed by computer-assisted nonlinear least square curve fitting method using the model of one receptor binding site.
A general note: Loss of bound radioactivity is the signal in a displacement assay; it reports binding, not function.

Assay [2] deals with T1, hSSTR4. The assay can be described thus: cAMP assay (inhibition of forskolin-stimulated cAMP) in hSSTR4 expressing H4 cells. The following applies: after being dissolved to free base forms. The class given is cell-based. How it is done: The activation of the SSTR4 receptor (G coupled) causes an inhibition of intracellular cAMP after stimulation with Forskolin, which can be quantifiable by use of a suitable assay Kit and an adequate plate reader. This technique is used to characterize pharmacological effects of the SSTR4 receptor agonists by use of hSSTR4 expressing H4 cells. The compound is dissolved and diluted in DMSO. The final test solution contains 1% DMSO. The cAMP standard (Lance™ cAMP 384 Kit; PerkinElmer, Cat #AD0264) is prepared in assay buffer (HBSS with 0.1% BSA, 5 mM HEPES, […], pH 7.4) containing 1% DMSO and the cAMP standard curve is included at least on one plate. Cells are centrifuged and suspended in assay buffer (incl. 1:100 diluted Alexa Fluor® antibody). For the assay 5 μL of a cell suspension (approximately 5000 cells/well)-incl. Alexa Fluor® antibody (diluted 1:100) are added into a 384 well MTP microtiter plate excepting one row or column (depending on the plate layout), which is reserved for the standard curve. Then 2 μL of compound sample is added as concentration response curve (e.g., le-5 M to 6e-10 M), usually in triplicates. Each assay contains incubations with vehicle controls instead of compound as controls for non-inhibited cAMP generation (100% CTL; ‘high values’) and incubations with 1 μM Somatostatin as controls for full inhibition and background (0% CTL; ‘low values’). After approximately 10-15 min incubation time 3 μL Forskolin (dissolved in DMSO, final conc. 15 μM) is added. Then the plates are shaken briefly and incubated for 60 min at RT. After 60 min 10 μL of the detection mix is added into all wells followed by an additional incubation period of 1 h. The plates are read in a suitable plate reader. The analysis of the data is based on the “ratio” of the time-resolved fluorescence measurements of donor and acceptor fluorophore (Ex: 320 nm; Em1: 665 nm; Em2: 615 nm; ratio 665/615). From this ratio, cAMP concentrations are calculated from standard curve and the EC50 is estimated by least square curve fit program. […]

Molecules are shown by their SMILES.

T1 sequence (P31391 whole entry): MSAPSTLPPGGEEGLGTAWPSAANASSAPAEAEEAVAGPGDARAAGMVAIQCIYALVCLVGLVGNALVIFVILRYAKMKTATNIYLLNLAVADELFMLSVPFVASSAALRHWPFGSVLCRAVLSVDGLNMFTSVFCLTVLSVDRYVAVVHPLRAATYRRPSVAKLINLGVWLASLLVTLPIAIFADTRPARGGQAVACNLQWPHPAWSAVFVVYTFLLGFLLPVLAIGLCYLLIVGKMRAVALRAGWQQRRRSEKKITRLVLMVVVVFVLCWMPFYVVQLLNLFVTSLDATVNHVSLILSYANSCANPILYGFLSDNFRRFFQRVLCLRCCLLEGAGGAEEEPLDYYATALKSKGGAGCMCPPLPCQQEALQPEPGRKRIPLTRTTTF

Regarding `Cc1cccnc1OCC(C)(C)NC(=O)[C@H]1[C@@H]2CNC[C@@H]21.O=C(O)C(O)C(O)C(=O)O` [Example 1, (1S,5R)-(1α,5α,6α)-N-[1,1-dimethyl-2-[(3-methyl-2-pyridyl)oxy]ethyl]-3-azabicyclo[3.1.0]hexane-6-carboxamide L-tartrate sesquihydrate], the “Selectivity of binding to SSTR4 over SSTR1, SSTR2, SSTR3 and SSTR5 (in words)” value in assay [1] is listed as “selectively bind to SSTR4”. The “SSTR4 agonism (in words)” value in assay [2] is listed as “agonists of SSTR4”.
In the same order, the values of `Cc1cccnc1OCC(C)(C)NC(=O)[C@H]1[C@@H]2CNC[C@@H]21.O=C(O)CC(O)(CC(=O)O)C(=O)O` [Example 2, (1S,5R)-(1α,5α,6α)-N-[1,1-dimethyl-2-[(3-methyl-2-pyridyl)oxy]ethyl]-3-azabicyclo[3.1.0]hexane-6-carboxamide citrate] are “selectively bind to SSTR4” and “agonists of SSTR4”.
The corresponding values for `Cc1cccnc1OCC(C)(C)NC(=O)[C@H]1[C@@H]2CNC[C@@H]21.O=C(O)C[C@H](O)C(=O)O` [Example 3, (1S,5R)-(1α,5α,6α)-N-[1,1-dimethyl-2-[(3-methyl-2-pyridyl)oxy]ethyl]-3-azabicyclo[3.1.0]hexane-6-carboxamide L-malate] are “selectively bind to SSTR4” and “agonists of SSTR4”.

For the origin of these results see US11834435B2, “SSTR4 agonist salts” (Eli Lilly and Company, priority 2021, dated 2023).
